Patent US20260201008A1, “SECRETIN-DERIVED GLP1R SELECTIVE AGONISTS” (GUBRA A/S, priority 2023, published 2026)
Read-outs that look alike come from different tables or passages of the source. Numbered stars: 1 amine (or outer) side, 2 acyl side, 3 side chain; on linkers, the order of the positions; unused ones are H or OH. Square brackets hold non-standard residues; d marks the D form. Side chains are listed from the residue outwards. Peptide text beside a SMILES is read from it. * marks the point of attachment. C20 diacid = O=C(O)CCCCCCCCCCCCCCCCCCC(=O)*; γGlu = O=C(O)[C@H](CCC(=O)[*:2])N[*:1]; AEEA = NCCOCCOCC(=O)O; Aib = CC(C)(N)C(=O)O

Tests used:
[1] = Turbidity of crude library peptides (absorbance at 600 nm); assay type: physicochemical; settings: Physical stability of peptides
Outline: (§1)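 Values reflect mean ThT emission (ex 450, em 480 nm) over 72 h at 40° C, read every 10 min after 5 min shaking at 700 rpm, plus a single initial absorbance at 600 nm for turbidity. Peptides were at 267 μM, pH 4.0 acetate or pH 7.0 phosphate (50 mM), with 4 μM ThT.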

[2] = Fibril formation of crude library peptides (Thioflavin T); assay type: physicochemical; parameters: key: average ThT fluorescence emission at 480 nm (ex 450 nm), raw units; settings: Physical stability of peptides
Outline: as §1

GLP1R = GLP1R (Homo sapiens, UniProt P43220); assay: hGLP1R potency, cAMP accumulation in CHO-K1 cells stably overexpressing hGLP1R; assay type: cell-based; parameters: host or cells: CHO-K1; settings: for Selectivity: SCTR EC50/GLP1R EC50 ratio; for EC50: cAMP accumulation, CHO-K1 cells overexpressing hGLP1R; for SCTR EC50/GLP1R EC50 ratio: selectivity for hGLP1R over hSCTR, cAMP accumulation in CHO-K1 cells
Sequence of GLP1R (P43220 24-463): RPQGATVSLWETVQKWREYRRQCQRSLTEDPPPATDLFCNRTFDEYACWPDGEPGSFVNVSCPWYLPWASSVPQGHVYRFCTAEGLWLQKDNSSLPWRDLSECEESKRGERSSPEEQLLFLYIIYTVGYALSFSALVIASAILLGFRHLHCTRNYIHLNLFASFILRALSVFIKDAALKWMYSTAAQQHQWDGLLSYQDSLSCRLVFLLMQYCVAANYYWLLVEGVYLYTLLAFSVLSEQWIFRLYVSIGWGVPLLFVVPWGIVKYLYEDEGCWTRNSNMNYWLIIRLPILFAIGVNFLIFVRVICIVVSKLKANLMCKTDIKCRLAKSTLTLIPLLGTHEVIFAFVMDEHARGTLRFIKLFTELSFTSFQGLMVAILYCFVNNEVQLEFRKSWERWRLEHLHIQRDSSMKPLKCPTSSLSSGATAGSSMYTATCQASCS
Outline: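 Cells were plated in DPBS with 0.05% casein and 0.5 mM IBMX, then stimulated for 30 min at room temperature with test compound. cAMP was read by TR-FRET after one hour. EC50 came from variable-slope sigmoid nonlinear regression; purified peptides ran as 11-point 3-fold series, n=2.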

SCTR = SCTR (Homo sapiens, UniProt P47872); assay: hSCTR potency, cAMP accumulation in CHO-K1 cells stably overexpressing hSCTR; assay type: cell-based; parameters: alternatively Euroscreen ES-712-AF; FAST-0161L; host or cells: CHO-K1; settings: cAMP accumulation, CHO-K1 cells overexpressing hSCTR
Sequence of SCTR (P47872 23-440): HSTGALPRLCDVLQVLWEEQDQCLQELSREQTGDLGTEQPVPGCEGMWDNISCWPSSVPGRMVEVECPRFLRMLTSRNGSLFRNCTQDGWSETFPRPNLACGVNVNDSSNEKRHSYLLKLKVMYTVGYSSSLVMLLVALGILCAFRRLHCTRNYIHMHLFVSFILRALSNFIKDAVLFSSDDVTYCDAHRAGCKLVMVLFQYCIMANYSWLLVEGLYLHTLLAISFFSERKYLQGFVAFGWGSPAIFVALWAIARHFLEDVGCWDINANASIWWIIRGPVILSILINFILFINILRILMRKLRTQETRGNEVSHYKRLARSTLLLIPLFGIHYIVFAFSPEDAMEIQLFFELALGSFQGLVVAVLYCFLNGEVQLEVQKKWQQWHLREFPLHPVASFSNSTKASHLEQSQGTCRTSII
Outline: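 Division-arrested CHO-K1 cells stably expressing hSCTR were plated in DPBS with 0.05% casein and 0.5 mM IBMX, then stimulated with test peptide for 30 min at room temperature. cAMP was read by HTRF after one hour. EC50 came from variable-slope sigmoidal nonlinear regression.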

[3] = read-out: pEC50 hGLPR1 (converted)
[4] = read-out: pEC50 hSCTR (converted)
[5] = read-out: hGLP1R pEC50 (converted)
[6] = read-out: hSCTR pEC50 (converted)

Row | Turbidity (pH 7) [1] | Fibril formation [2] | Selectivity (GLP1R) | EC50 (GLP1R; [3]) [nM] | EC50 (SCTR; [4]) [nM] | EC50 (GLP1R; [5]) [nM] | SCTR EC50/GLP1R EC50 ratio (GLP1R) | EC50 (SCTR; [6]) [nM] | SMILES
1 | 0.10 | 170210 | 7342 | 0.0794 | 631 | – | – | – | CC(C)C[C@H](NC(=O)[C@H](CCC(=O)O)NC(=O)[C@H](CCCCNC(=O)COCCOCCNC(=O)COCCOCCNC(=O)CC[C@H](NC(=O)CCCCCCCCCCCCCCCCCCC(=O)O)C(=O)O)NC(=O)[C@H](CC(C)C)NC(=O)[C@H](CCCNC(=N)N)NC(=O)[C@H](CO)NC(=O)[C@@H](NC(=O)[C@H](CC(=O)O)NC(=O)[C@H](CO)NC(=O)[C@@H](NC(=O)[C@H](Cc1ccccc1)NC(=O)[C@@H](NC(=O)CNC(=O)[C@H](CCC(=O)O)NC(=O)C(C)(C)NC(=O)[C@@H](N)Cc1c[nH]cn1)[C@@H](C)O)[C@@H](C)O)C(C)C)C(=O)N[C@@H](C)C(=O)N[C@@H](C)C(=O)N[C@@H](CO)C(=O)N[C@@H](CCC(N)=O)C(=O)N[C@@H](CCCNC(=N)N)C(=O)N[C@@H](Cc1ccccc1)C(=O)N[C@@H](CC(C)C)C(=O)N[C@@H](CCC(=O)O)C(=O)N[C@@H](Cc1c[nH]cn1)C(=O)N[C@@H](CC(C)C)C(=O)N[C@H](C(N)=O)C(C)C [compound 19] (H-H[Aib]EGTFTSDVSRLK([AEEA-AEEA-γGlu-C20 diacid])ELAASQRFLEHLV-NH2)
2 | 0.08 | 24482 | – | – | – | 0.126 | 6301 | 794 | CC(C)C[C@H](NC(=O)[C@H](Cc1ccccc1)NC(=O)[C@H](CCCNC(=N)N)NC(=O)[C@H](CCC(N)=O)NC(=O)[C@H](CCC(N)=O)NC(=O)[C@H](C)NC(=O)[C@H](C)NC(=O)[C@H](Cc1ccccc1)NC(=O)[C@H](CCC(=O)O)NC(=O)[C@H](CCCCNC(=O)COCCOCCNC(=O)COCCOCCNC(=O)CC[C@H](NC(=O)CCCCCCCCCCCCCCCCCCC(=O)O)C(=O)O)NC(=O)[C@H](CC(C)C)NC(=O)[C@@H](NC(=O)[C@H](CO)NC(=O)[C@@H](NC(=O)[C@H](CC(=O)O)NC(=O)[C@H](CO)NC(=O)[C@@H](NC(=O)[C@H](Cc1ccccc1)NC(=O)[C@@H](NC(=O)CNC(=O)[C@H](CCC(=O)O)NC(=O)C(C)(C)NC(=O)[C@@H](N)Cc1c[nH]cn1)[C@@H](C)O)[C@@H](C)O)C(C)C)[C@@H](C)O)C(=O)N[C@@H](CCC(=O)O)C(=O)N[C@@H](Cc1c[nH]cn1)C(=O)N[C@@H](CC(C)C)C(=O)N[C@H](C(N)=O)C(C)C [compound 100] (H-H[Aib]EGTFTSDVSTLK([AEEA-AEEA-γGlu-C20 diacid])EFAAQQRFLEHLV-NH2)
3 | 0.08 | 96622 | 9251 | 0.1 | 1000 | – | – | – | CC(C)C[C@H](NC(=O)[C@H](Cc1ccccc1)NC(=O)[C@H](CCCNC(=N)N)NC(=O)[C@H](CCC(N)=O)NC(=O)[C@H](CCC(=O)O)NC(=O)[C@H](C)NC(=O)[C@H](C)NC(=O)[C@H](Cc1ccccc1)NC(=O)[C@H](CCC(=O)O)NC(=O)[C@H](CCCCNC(=O)COCCOCCNC(=O)COCCOCCNC(=O)CC[C@H](NC(=O)CCCCCCCCCCCCCCCCCCC(=O)O)C(=O)O)NC(=O)[C@H](CC(C)C)NC(=O)[C@H](CCCNC(=N)N)NC(=O)[C@H](CO)NC(=O)[C@@H](NC(=O)[C@H](CC(=O)O)NC(=O)[C@H](CO)NC(=O)[C@@H](NC(=O)[C@H](Cc1ccccc1)NC(=O)[C@@H](NC(=O)CNC(=O)[C@H](CCC(=O)O)NC(=O)C(C)(C)NC(=O)[C@@H](N)Cc1c[nH]cn1)[C@@H](C)O)[C@@H](C)O)C(C)C)C(=O)N[C@@H](CCC(=O)O)C(=O)N[C@@H](Cc1c[nH]cn1)C(=O)N[C@@H](CC(C)C)C(=O)N[C@H](C(N)=O)C(C)C [compound 72] (H-H[Aib]EGTFTSDVSRLK([AEEA-AEEA-γGlu-C20 diacid])EFAAEQRFLEHLV-NH2)
4 | 0.08 | 4018 | – | – | – | 0.00631 | 16446 | 100 | CC(C)C[C@H](NC(=O)CNC(=O)[C@H](CO)NC(=O)[C@@H](NC(=O)[C@H](CC(=O)O)NC(=O)[C@H](CO)NC(=O)[C@@H](NC(=O)[C@H](Cc1ccccc1)NC(=O)[C@@H](NC(=O)CNC(=O)[C@H](CCC(=O)O)NC(=O)C(C)(C)NC(=O)[C@@H](N)Cc1c[nH]cn1)[C@@H](C)O)[C@@H](C)O)C(C)C)C(=O)N[C@@H](CCCCNC(=O)COCCOCCNC(=O)COCCOCCNC(=O)CC[C@H](NC(=O)CCCCCCCCCCCCCCCCCCC(=O)O)C(=O)O)C(=O)N[C@@H](CCC(=O)O)C(=O)N[C@@H](CCC(=O)O)C(=O)N[C@@H](C)C(=O)NC(C)(C)C(=O)N[C@@H](CC(C)C)C(=O)N[C@@H](CCC(N)=O)C(=O)N[C@@H](CCCNC(=N)N)C(=O)N[C@@H](Cc1ccccc1)C(=O)N[C@@H](CC(C)C)C(=O)N[C@@H](CCC(=O)O)C(=O)N[C@@H](Cc1c[nH]cn1)C(=O)N[C@@H](CC(C)C)C(=O)N[C@H](C(N)=O)C(C)C [compound 167] (H-H[Aib]EGTFTSDVSGLK([AEEA-AEEA-γGlu-C20 diacid])EEA[Aib]LQRFLEHLV-NH2)

Further lines, the compound ahead of its results:

Row | SMILES | Turbidity (pH 7) [1] | Fibril formation [2] | Selectivity (GLP1R) | EC50 (GLP1R; [3]) [nM] | EC50 (SCTR; [4]) [nM] | EC50 (GLP1R; [5]) [nM] | SCTR EC50/GLP1R EC50 ratio (GLP1R) | EC50 (SCTR; [6]) [nM]
5 | CC(C)C[C@H](NC(=O)[C@H](Cc1ccccc1)NC(=O)[C@H](CCCNC(=N)N)NC(=O)[C@H](CCC(N)=O)NC(=O)[C@H](CCC(=O)O)NC(=O)[C@H](C)NC(=O)[C@H](C)NC(=O)C(C)(C)NC(=O)[C@H](CCC(=O)O)NC(=O)[C@H](CCCCNC(=O)COCCOCCNC(=O)COCCOCCNC(=O)CC[C@H](NC(=O)CCCCCCCCCCCCCCCCCCC(=O)O)C(=O)O)NC(=O)[C@H](CC(C)C)NC(=O)[C@H](CCC(=O)O)NC(=O)[C@H](CO)NC(=O)[C@@H](NC(=O)[C@H](CC(=O)O)NC(=O)[C@H](CO)NC(=O)[C@@H](NC(=O)[C@H](Cc1ccccc1)NC(=O)[C@@H](NC(=O)CNC(=O)[C@H](CCC(=O)O)NC(=O)C(C)(C)NC(=O)[C@@H](N)Cc1c[nH]cn1)[C@@H](C)O)[C@@H](C)O)C(C)C)C(=O)N[C@@H](CCC(=O)O)C(=O)N[C@@H](Cc1c[nH]cn1)C(=O)N[C@@H](CC(C)C)C(=O)N[C@H](C(N)=O)C(C)C [compound 18] (H-H[Aib]EGTFTSDVSELK([AEEA-AEEA-γGlu-C20 diacid])E[Aib]AAEQRFLEHLV-NH2) | 0.09 | 12140 | 16263 | 0.0316 | 501 | – | – | –
6 | CC[C@H](C)[C@H](NC(=O)[C@H](Cc1ccccc1)NC(=O)[C@H](CCCNC(=N)N)NC(=O)[C@H](CCC(N)=O)NC(=O)[C@H](CC(C)C)NC(=O)[C@H](C)NC(=O)[C@H](C)NC(=O)CNC(=O)[C@H](CCC(=O)O)NC(=O)[C@H](CC(C)C)NC(=O)[C@H](CC(C)C)NC(=O)[C@@H](NC(=O)[C@H](CO)NC(=O)[C@@H]1CCCN1C(=O)[C@H](CC(=O)O)NC(=O)[C@H](CO)NC(=O)[C@@H](NC(=O)[C@H](Cc1ccccc1)NC(=O)[C@@H](NC(=O)CNC(=O)[C@H](CCC(=O)O)NC(=O)C(C)(C)NC(=O)[C@@H](N)Cc1c[nH]cn1)[C@@H](C)O)[C@@H](C)O)C(C)C)C(=O)N[C@@H](CCC(N)=O)C(=O)N[C@@H](Cc1c[nH]c2ccccc12)C(=O)N[C@@H](CC(C)C)C(=O)N[C@H](C(N)=O)C(C)C [compound 129] (H-H[Aib]EGTFTSDPSVLLEGAALQRFIQWLV-NH2) | 0.12 | 5327 | – | – | – | 7.94 | 1220 | 10000
7 | CC(C)C[C@H](NC(=O)[C@H](Cc1ccccc1)NC(=O)[C@H](CCCNC(=N)N)NC(=O)[C@H](CCC(N)=O)NC(=O)CNC(=O)C(C)(C)NC(=O)[C@H](C)NC(=O)[C@H](CCC(=O)O)NC(=O)[C@H](CCC(=O)O)NC(=O)[C@H](CCCCNC(=O)COCCOCCNC(=O)COCCOCCNC(=O)CC[C@H](NC(=O)CCCCCCCCCCCCCCCCCCC(=O)O)C(=O)O)NC(=O)[C@H](CC(C)C)NC(=O)[C@H](Cc1ccc(O)cc1)NC(=O)[C@H](CO)NC(=O)[C@@H](NC(=O)[C@H](CC(=O)O)NC(=O)[C@H](CO)NC(=O)[C@@H](NC(=O)[C@H](Cc1ccccc1)NC(=O)[C@@H](NC(=O)CNC(=O)[C@H](CCC(=O)O)NC(=O)C(C)(C)NC(=O)[C@@H](N)Cc1c[nH]cn1)[C@@H](C)O)[C@@H](C)O)C(C)C)C(=O)N[C@@H](CCC(=O)O)C(=O)N[C@@H](Cc1c[nH]cn1)C(=O)N[C@@H](CC(C)C)C(=O)N[C@H](C(N)=O)C(C)C [compound 154] (H-H[Aib]EGTFTSDVSYLK([AEEA-AEEA-γGlu-C20 diacid])EEA[Aib]GQRFLEHLV-NH2) | 0.08 | 3107 | – | – | – | 0.0158 | 203892 | 3980
